Measured values from patent publication US10711002B2, “Purine compounds and method for the treatment of cancer” (THE ROYAL INSTITUTION FOR THE ADVANCEMENT OF …, priority 2016, dated 2020).

What was measured:
Assay in all cases: High-throughput kinase assay
Format in all cases: biochemical
SRC = SRC (Homo sapiens, UniProt P12931); details: read-out: Percent inhibition of kinase activity in vitro, SRC
AURKC (Aurora C) = target: T1, AURKC (Aurora C) (Homo sapiens, UniProt Q9UQB9); details: read-out: Percent inhibition of kinase activity in vitro, AURKC (Aurora C)
T1 sequence (Q9UQB9 1-309): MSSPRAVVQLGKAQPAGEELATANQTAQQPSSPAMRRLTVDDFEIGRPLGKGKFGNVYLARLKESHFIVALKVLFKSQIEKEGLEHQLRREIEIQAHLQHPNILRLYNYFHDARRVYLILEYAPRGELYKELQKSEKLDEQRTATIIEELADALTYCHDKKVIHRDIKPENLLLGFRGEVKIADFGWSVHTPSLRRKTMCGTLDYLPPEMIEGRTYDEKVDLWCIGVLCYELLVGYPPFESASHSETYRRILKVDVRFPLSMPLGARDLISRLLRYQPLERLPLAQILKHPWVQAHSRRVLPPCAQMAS

BRAF-ZLYTE-100 = BRAF-ZLYTE-100 (Homo sapiens, UniProt P15056); details: 100 nM; read-out: Percent inhibition of kinase activity in vitro, BRAF-ZLYTE-100
FRAP1 (mTOR) = FRAP1 (mTOR) (Homo sapiens, UniProt P42345); details: read-out: Percent inhibition of kinase activity in vitro, FRAP1 (mTOR)
EGFR (ErbB1) = EGFR (ErbB1) (Homo sapiens, UniProt P00533); details: read-out: Percent inhibition of kinase activity in vitro, EGFR (ErbB1)
EEF2K = EEF2K (Homo sapiens, UniProt O00418); details: read-out: Percent inhibition of kinase activity in vitro, EEF2K
PDGFRA (PDGFR alpha) = PDGFRA (PDGFR alpha) (Homo sapiens, UniProt P16234); details: read-out: Percent inhibition of kinase activity in vitro, PDGFRA (PDGFR alpha)
MET (cMet) = MET (cMet) (Homo sapiens, UniProt P08581); details: read-out: Percent inhibition of kinase activity in vitro, MET (cMet)
PTK2 (FAK) = PTK2 (FAK) (Homo sapiens, UniProt Q05397); details: read-out: Percent inhibition of kinase activity in vitro, PTK2 (FAK)
YES1 = YES1 (Homo sapiens, UniProt P07947); details: read-out: Percent inhibition of kinase activity in vitro, YES1
FGFR1 = FGFR1 (Homo sapiens, UniProt P11362); details: read-out: Percent inhibition of kinase activity in vitro, FGFR1
JAK2 = JAK2 (Homo sapiens, UniProt O60674); details: read-out: Percent inhibition of kinase activity in vitro, JAK2
PRKCB1 (PKC beta I) = PRKCB1 (PKC beta I) (Homo sapiens, UniProt P05771); details: 50 nM; read-out: Percent inhibition of kinase activity in vitro, PRKCB1 (PKC beta I)
PRKCH (PKC eta) = PRKCH (PKC eta) (Homo sapiens, UniProt P24723); details: 50 nM; read-out: Percent inhibition of kinase activity in vitro, PRKCH (PKC eta)
ERBB2 (HER2) = ERBB2 (HER2) (Homo sapiens, UniProt P04626); details: 500 nM; read-out: Percent inhibition of kinase activity in vitro, ERBB2 (HER2)
PRKCA (PKC alpha) = PRKCA (PKC alpha) (Homo sapiens, UniProt P17252); details: read-out: Percent inhibition of kinase activity in vitro, PRKCA (PKC alpha)
RET = RET (Homo sapiens, UniProt P07949); details: read-out: Percent inhibition of kinase activity in vitro, RET
AKT1 (PKB alpha) = AKT1 (PKB alpha) (Homo sapiens, UniProt P31749); details: read-out: Percent inhibition of kinase activity in vitro, AKT1 (PKB alpha)
PIK3CA/PIK3R1 = PIK3CA/PIK3R1 (Homo sapiens, UniProt P42336); details: read-out: Percent inhibition of kinase activity in vitro, PIK3CA/PIK3R1
PIK3CA/PIK3R1, sequence (P42336 whole entry): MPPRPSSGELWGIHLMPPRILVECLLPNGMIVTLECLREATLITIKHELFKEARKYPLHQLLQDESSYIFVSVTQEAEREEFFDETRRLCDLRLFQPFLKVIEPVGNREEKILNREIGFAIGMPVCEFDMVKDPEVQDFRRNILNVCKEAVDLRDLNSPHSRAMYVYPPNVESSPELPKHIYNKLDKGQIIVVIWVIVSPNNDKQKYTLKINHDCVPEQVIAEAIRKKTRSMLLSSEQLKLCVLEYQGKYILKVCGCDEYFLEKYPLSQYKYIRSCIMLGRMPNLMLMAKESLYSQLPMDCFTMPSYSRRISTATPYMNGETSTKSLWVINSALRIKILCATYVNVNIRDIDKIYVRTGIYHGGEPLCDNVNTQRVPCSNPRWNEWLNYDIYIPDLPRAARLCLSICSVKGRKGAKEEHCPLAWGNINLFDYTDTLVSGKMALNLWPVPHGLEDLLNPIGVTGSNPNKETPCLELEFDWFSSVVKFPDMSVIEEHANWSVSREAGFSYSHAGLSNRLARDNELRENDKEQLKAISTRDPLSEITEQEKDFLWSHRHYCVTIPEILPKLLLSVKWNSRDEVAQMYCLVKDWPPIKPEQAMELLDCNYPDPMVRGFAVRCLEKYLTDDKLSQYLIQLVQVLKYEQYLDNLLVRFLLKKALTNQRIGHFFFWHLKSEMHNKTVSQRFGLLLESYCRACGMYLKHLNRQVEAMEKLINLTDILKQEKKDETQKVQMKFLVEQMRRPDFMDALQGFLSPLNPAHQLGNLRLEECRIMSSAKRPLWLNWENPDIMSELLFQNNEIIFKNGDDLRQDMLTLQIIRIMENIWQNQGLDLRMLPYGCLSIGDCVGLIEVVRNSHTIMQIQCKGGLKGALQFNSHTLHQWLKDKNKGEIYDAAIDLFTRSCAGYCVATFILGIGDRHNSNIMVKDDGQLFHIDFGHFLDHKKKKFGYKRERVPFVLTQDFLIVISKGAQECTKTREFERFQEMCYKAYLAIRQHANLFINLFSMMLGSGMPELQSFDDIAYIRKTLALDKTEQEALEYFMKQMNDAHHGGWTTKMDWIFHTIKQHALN
PIK3CA/PIK3R1, sequence (P27986 whole entry partner): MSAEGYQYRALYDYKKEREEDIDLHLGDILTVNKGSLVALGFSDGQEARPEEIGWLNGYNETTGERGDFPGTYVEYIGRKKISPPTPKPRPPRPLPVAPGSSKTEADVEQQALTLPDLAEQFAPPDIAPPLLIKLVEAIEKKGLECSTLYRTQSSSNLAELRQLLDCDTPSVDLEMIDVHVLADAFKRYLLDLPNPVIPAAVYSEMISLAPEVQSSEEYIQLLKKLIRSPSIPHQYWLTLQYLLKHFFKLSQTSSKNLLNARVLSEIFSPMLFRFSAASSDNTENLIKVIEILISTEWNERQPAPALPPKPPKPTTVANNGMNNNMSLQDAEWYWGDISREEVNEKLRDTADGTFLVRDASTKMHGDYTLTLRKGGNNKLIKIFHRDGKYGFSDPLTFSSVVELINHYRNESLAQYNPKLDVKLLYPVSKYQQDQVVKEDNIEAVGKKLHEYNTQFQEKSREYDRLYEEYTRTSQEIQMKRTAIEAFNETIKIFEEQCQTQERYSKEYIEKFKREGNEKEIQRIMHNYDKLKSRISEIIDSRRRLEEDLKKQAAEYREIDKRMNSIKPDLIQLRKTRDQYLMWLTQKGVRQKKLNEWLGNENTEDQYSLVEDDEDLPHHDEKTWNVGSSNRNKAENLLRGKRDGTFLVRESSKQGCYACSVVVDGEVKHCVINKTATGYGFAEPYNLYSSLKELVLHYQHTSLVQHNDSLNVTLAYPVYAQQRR

MET (cMet), sequence (P08581 25-1390): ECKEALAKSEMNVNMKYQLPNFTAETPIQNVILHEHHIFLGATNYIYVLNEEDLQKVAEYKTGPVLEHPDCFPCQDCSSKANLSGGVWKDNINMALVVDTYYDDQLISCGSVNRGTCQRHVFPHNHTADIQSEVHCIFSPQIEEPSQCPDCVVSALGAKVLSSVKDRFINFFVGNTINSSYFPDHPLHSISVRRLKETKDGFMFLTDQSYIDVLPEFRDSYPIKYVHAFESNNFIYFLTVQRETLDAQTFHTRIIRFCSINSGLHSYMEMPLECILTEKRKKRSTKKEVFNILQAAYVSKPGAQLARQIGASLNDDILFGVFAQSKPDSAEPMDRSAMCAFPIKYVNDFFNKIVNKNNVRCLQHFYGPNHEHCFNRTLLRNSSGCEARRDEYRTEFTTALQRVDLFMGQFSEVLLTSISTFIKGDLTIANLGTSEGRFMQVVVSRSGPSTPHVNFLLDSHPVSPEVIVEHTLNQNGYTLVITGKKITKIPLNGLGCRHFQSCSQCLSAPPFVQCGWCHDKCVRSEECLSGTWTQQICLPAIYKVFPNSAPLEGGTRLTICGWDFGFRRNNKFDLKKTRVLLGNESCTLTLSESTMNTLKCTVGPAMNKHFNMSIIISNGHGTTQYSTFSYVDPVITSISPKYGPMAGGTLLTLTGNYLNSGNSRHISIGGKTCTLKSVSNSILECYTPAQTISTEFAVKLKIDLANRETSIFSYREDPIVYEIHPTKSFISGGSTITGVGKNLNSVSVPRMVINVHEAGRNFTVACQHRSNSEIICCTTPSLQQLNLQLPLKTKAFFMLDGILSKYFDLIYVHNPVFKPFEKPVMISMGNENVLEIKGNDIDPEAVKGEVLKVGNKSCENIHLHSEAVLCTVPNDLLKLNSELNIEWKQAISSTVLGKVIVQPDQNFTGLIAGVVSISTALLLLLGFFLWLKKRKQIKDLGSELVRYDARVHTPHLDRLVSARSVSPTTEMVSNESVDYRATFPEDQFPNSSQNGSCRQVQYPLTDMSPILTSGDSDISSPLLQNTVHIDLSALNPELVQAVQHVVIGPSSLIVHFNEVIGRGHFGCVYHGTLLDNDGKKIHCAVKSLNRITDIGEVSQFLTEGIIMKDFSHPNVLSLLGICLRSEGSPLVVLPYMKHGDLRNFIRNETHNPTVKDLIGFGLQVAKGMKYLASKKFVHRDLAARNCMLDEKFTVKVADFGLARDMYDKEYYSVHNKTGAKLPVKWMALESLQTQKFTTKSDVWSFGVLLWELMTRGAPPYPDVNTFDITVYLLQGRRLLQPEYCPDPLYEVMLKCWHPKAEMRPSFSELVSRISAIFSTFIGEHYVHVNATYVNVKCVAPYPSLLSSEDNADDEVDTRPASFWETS
SRC, sequence (P12931 whole entry): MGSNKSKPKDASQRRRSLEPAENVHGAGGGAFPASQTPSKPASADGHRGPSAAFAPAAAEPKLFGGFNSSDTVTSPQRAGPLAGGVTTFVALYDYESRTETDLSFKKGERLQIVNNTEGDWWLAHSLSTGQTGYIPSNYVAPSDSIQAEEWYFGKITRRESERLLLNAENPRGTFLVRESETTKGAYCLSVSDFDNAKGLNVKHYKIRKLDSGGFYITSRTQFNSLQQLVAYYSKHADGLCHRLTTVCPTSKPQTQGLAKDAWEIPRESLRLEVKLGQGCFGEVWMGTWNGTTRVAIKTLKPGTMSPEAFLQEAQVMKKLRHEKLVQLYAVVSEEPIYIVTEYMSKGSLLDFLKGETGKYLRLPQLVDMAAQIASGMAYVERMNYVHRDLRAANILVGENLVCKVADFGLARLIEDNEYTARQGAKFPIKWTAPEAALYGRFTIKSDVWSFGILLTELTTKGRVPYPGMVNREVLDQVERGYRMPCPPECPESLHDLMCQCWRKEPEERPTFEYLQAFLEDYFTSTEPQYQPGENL
AKT1 (PKB alpha), sequence (P31749 whole entry): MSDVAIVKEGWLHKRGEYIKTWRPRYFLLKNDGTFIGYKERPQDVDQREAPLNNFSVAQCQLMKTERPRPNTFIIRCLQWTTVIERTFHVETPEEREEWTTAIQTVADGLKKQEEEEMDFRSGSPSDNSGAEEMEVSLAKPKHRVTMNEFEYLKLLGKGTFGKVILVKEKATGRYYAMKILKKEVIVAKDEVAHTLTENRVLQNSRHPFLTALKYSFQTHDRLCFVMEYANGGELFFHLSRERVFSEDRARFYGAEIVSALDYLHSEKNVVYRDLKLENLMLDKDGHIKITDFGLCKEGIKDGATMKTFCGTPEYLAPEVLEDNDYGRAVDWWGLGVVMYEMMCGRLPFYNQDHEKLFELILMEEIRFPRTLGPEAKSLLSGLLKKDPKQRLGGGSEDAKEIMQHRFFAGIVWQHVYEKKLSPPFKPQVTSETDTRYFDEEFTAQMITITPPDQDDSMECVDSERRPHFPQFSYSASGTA

`O=c1c2ccccc2[se]n1-c1nc(NC2CCCCC2)c2nc[nH]c2n1` [Compound 1] showed an inhibition at 0.1 µM (SRC; 100 nM) of 1%, an inhibition at 0.5 µM (SRC; 500 nM) of 5% and an inhibition at 0.1 µM (AURKC (Aurora C); 100 nM) of 2%. It also gave an inhibition at 0.5 µM (AURKC (Aurora C); 500 nM) of 10%, an inhibition at 0.1 µM (BRAF-ZLYTE-100) of 1% and an inhibition at 0.1 µM (FRAP1 (mTOR); 100 nM) of 1%. It also gave an inhibition at 0.5 µM (FRAP1 (mTOR); 500 nM) of 2%, an inhibition at 0.1 µM (EGFR (ErbB1); 100 nM) of 1% and an inhibition at 0.5 µM (EGFR (ErbB1); 500 nM) of 0%. It also gave an inhibition at 0.1 µM (EEF2K; 100 nM) of 7%, an inhibition at 0.5 µM (EEF2K; 500 nM) of 11% and an inhibition at 0.1 µM (PDGFRA (PDGFR alpha); 100 nM) of 0%. The inhibition at 0.5 µM (PDGFRA (PDGFR alpha); 500 nM) was 3%, the inhibition at 0.1 µM (MET (cMet); 100 nM) was 2% and the inhibition at 0.5 µM (MET (cMet); 500 nM) was 10%. It also gave an inhibition at 0.1 µM (PTK2 (FAK); 100 nM) of 5%, an inhibition at 0.5 µM (PTK2 (FAK); 500 nM) of 7% and an inhibition at 0.1 µM (YES1; 100 nM) of 22%. It also gave an inhibition at 0.5 µM (YES1; 500 nM) of 47%, an inhibition at 0.1 µM (FGFR1; 100 nM) of 0% and an inhibition at 0.5 µM (FGFR1; 500 nM) of 2%. For the same compound, the inhibition at 0.1 µM (JAK2; 100 nM) was 10%, the inhibition at 0.5 µM (JAK2; 500 nM) was 10% and the inhibition at 0.05 µM (PRKCB1 (PKC beta I)) was 59%. It also gave an inhibition at 0.05 µM (PRKCH (PKC eta)) of 0%, an inhibition at 0.5 µM (ERBB2 (HER2)) of 0% and an inhibition at 0.05 µM (PRKCA (PKC alpha); 50 nM) of 68%. It also gave an inhibition at 0.1 µM (PRKCA (PKC alpha); 100 nM) of 83%, an inhibition at 0.5 µM (PRKCA (PKC alpha); 500 nM) of 98% and an inhibition at 0.1 µM (RET; 100 nM) of 5%. For the same compound, the inhibition at 0.5 µM (RET; 500 nM) was 23%, the inhibition at 0.1 µM (AKT1 (PKB alpha); 100 nM) was 4% and the inhibition at 0.5 µM (AKT1 (PKB alpha); 500 nM) was 11%. It also gave an inhibition at 0.1 µM (PIK3CA/PIK3R1; 100 nM) of 0% and an inhibition at 0.5 µM (PIK3CA/PIK3R1; 500 nM) of 61%.
